# Results published in US8865624B2, “Inhibitor for tobacco axillary bud growth and method for inhibiting tobacco axillary bud growth” (SDS Biotech K.K., priority 2010, dated 2014).
# Like-named read-outs stand apart in the source and are kept apart here.
# Assays:
# [1] = system: Tobacco Tsukuba 1 (flue-cured cultivar) axillary buds; assay: Tobacco axillary bud growth inhibition test, flue-cured cultivar; assay type: in vivo, Nicotiana tabacum; conditions: for pest or weed control at 0.5 %: concentration of active ingredient 0.5%; for pest or weed control at 0.2 %: concentration of active ingredient 0.2%
# Method: (§1) Tobacco seedlings of Tsukuba 1 (flue-cured cultivar) and Michinoku 1 (burley cultivar) were transplanted to 1/5000a Wagner pots filled with Kureha garden nursery soil. The plants were grown in a glasshouse, and the floral axis parts were removed at the time of single-flower bloom of tobacco (top pruning).
# (§2) The formulations of the inhibitors for tobacco axillary bud growth obtained in Formulation Examples 1 to 10 above were each diluted with water to predetermined concentrations, and 20 ml of the water-diluted solutions of the respective inhibitors were separately sprayed using a contact-type axillary bud inhibitor spraying instrument equipped with a spot exhaust nozzle (Examples 1 to 11 and 12 to 22). In addition, butralin (trade name: Blue Ribbon) (Comparative Examples 1 and 3) and decyl alcohol (trade name: Contact) (Comparative Examples 2 and 4) were used for tests as comparative examples in the same manner as above. In the cases of both the flue-cured cultivar and burley cultivar, one plant was planted per pot, and the tests were carried out in duplicate.
# (§3) For the respective cases, states of inhibition of axillary bud growth 28 days after the spraying were investigated together with untreated groups sprayed with no inhibitor, and axillary bud growth inhibition ratios were calculated by the following equation. Axillary bud growth inhibition ratio=(fresh weight of axillary buds per plant of untreated group−fresh weight of axillary buds per plant of treated group)÷(fresh weight of axillary buds per plant of untreated group)×100 [Math. 1]
# (§4) The formulation of Formulation Example 1 (cafenstrole), Formulation Example 2 (thenylchlor) or Formulation Example 10 (propisochlor) above was diluted with water to predetermined concentrations and mixed with decyl alcohol (manufactured by Wako Pure Chemical Industries, Ltd.), 2-ethylhexanol (manufactured by Wako Pure Chemical Industries, Ltd.) or geraniol (manufactured by Wako Pure Chemical Industries, Ltd.) at predetermined concentrations, and the resultant was adjusted and used for tests (Examples 23 to 31 and 32 to 40). In addition, as comparative examples, the formulation of Formulation Example 1, […], or Formulation Example 10 diluted with water to predetermined concentrations (Comparative Examples 5 to 7 and 11 to 13) and decyl alcohol, 2-ethylhexanol or geraniol diluted with water to a predetermined concentration were used for tests (Comparative Examples 8 to 10 and 14 to 16).
# (§5) The respective inhibitors were sprayed in the same manner as in Test Example 1, and states of inhibition of axillary bud growth 28 days after the spraying were investigated together with untreated groups sprayed with no inhibitor. Then, axillary bud growth inhibition ratios were calculated.
# (§6) The formulation of Formulation Example 11 (cafenstrole), Formulation Example 12 (thenylchlor) or Formulation Example 13 (chlorthal-dimethyl) above was diluted with water to predetermined concentrations, and the resultant was mixed, adjusted and used for tests (Examples 41 to 58 and 59 to 76). In addition, as comparative examples, the formulation of Formulation Example 11, Formulation Example 12 or Formulation Example 13 diluted with water to predetermined concentrations (Comparative Examples 21 to 29 and 34 to 42), butralin (trade name: Blue Ribbon) (Comparative Examples 17, 18, 30, and 31) and decyl alcohol (trade name: Contact) (Comparative Examples 19, 20, 32, and 33) were used for tests in the same manner as above.
# [2] = system: Tobacco Michinoku 1 (burley cultivar) axillary buds; assay: Tobacco axillary bud growth inhibition test, burley cultivar; assay type: in vivo; conditions: Nicotiana tabacum, 672 h, 28 days after the spraying; for pest or weed control at 0.5 %: concentration of active ingredient 0.5%; for pest or weed control at 0.1 %: concentration of active ingredient 0.1%; for pest or weed control at 0.35 %: concentration of active ingredient 0.35%; for pest or weed control at 0.03 %: concentration of active ingredient 0.03%; for pest or weed control at 0.05 %: concentration of active ingredient 0.05%; for pest or weed control at 0.2 %: concentration of active ingredient 0.2%; for pest or weed control at 2.6 %: concentration of active ingredient 2.6%
# Method: as §1, §2, §3, §4, §5, §6
# [3] = system: Tobacco Michinoku 1 (burley cultivar) leaves (first to fourth leaves from the top); assay: Harmful effect of inhibitor on tobacco leaves, burley cultivar; assay type: in vivo, Nicotiana tabacum
# Method: as §1, §2
# (§7) Further, the presence or absence of the harmful effect of each inhibitor was evaluated in one of the following four categories depending on the degrees of growth inhibition, gangrene, change in color, deformation and the like of leaves (first to fourth leaves from the top).
# (§8) Large: A severely harmful effect was observed.
# (§9) Middle: A clearly harmful effect was observed.
# (§10) Small: A slightly harmful effect was observed.
# (§11) Absent: No harmful effect was observed.
# as §6, §5
# [4] = system: Tobacco Tsukuba 1 (flue-cured cultivar) leaves (first to fourth leaves from the top); assay: Harmful effect of inhibitor on tobacco leaves, flue-cured cultivar; assay type: in vivo, Nicotiana tabacum
# Method: as §1, §2, §7, §8, §9, §10, §11, §6, §5
# [5] = Nicotiana tabacum, 672 h, Table 3, flue-cured cultivar, 28 days after the spraying, read-out: Axillary bud growth inhibition ratio
# [6] = Table 4, burley cultivar, read-out: Axillary bud growth inhibition ratio
# [7] = Nicotiana tabacum, 672 h, Table 1, flue-cured cultivar, concentration of active ingredient 0.1%, 28 days after the spraying, read-out: Axillary bud growth inhibition ratio
# [8] = Table 2, burley cultivar, read-out: Axillary bud growth inhibition ratio
# [9] = Table 2, burley cultivar, concentration of active ingredient 0.1%
# [10] = Table 1, flue-cured cultivar, concentration of active ingredient 0.1%
# [11] = Nicotiana tabacum, 672 h, read-out: Axillary bud growth inhibition ratio
# [12] = read-out: Axillary bud growth inhibition ratio, Table 2, burley cultivar
# [13] = read-out: Axillary bud growth inhibition ratio, Table 6, burley cultivar
# [14] = Table 6, burley cultivar, read-out: Axillary bud growth inhibition ratio
smiles,measurement,setting,value
"CCCCC(CC)CO (centres unmarked) [2-Ethylhexanol, 2-ethylhexanol]",pest or weed control at 0.5 %,[1]; [5],21%
same,pest or weed control at 0.5 %,[2]; [6],34%
"CCc1cccc(CC)c1N(COC)C(=O)CCl [Alachlor, alachlor]",pest or weed control at 0.1 %,[1]; [7],97%
same,pest or weed control at 0.1 %,[2]; [8],91%
same,Harmful effect of inhibitor,[3]; [9],Absent
same,Harmful effect of inhibitor,[4]; [10],Absent
"CCCCOCN(C(=O)CCl)c1c(CC)cccc1CC [Butachlor, butachlor]",pest or weed control at 0.1 %,[1]; [7],100%
same,pest or weed control at 0.1 %,[2]; [8],96%
same,Harmful effect of inhibitor,[3]; in vivo,Absent
same,Harmful effect of inhibitor,[4]; in vivo,Absent
"CCC(C)Nc1c([N+](=O)[O-])cc(C(C)(C)C)cc1[N+](=O)[O-] (centres unmarked) [Butralin, butralin]",pest or weed control at 0.03 %,[1]; [11],44%
same,pest or weed control at 0.35 %,[1]; [11],98%
same,Axillary bud growth inhibition ratio,"[1]; Table 5, flue-cured cultivar, concentration of active ingredient 0.35%, 28 days after the spraying",98%
same,pest or weed control at 0.35 %,[2]; [12],96%
same,pest or weed control at 0.03 %,[2]; [13],48%
same,pest or weed control at 0.35 %,[2]; [13],97%
CCN(CC)C(=O)n1cnc(S(=O)(=O)c2c(C)cc(C)cc2C)n1 [Cafenstrole],pest or weed control at 0.002 %,[1]; [11],17%
same,pest or weed control at 0.005 %,[1]; [11],20%
same,pest or weed control at 0.01 %,[1]; [11],23%
same,pest or weed control at 0.05 %,[1]; [11],76%
same,pest or weed control at 0.1 %,[1]; [11],100%
same,pest or weed control at 0.1 %,[2]; [12],99%
same,pest or weed control at 0.05 %,"[2]; read-out: Axillary bud growth inhibition ratio, Table 4, burley cultivar",72%
same,pest or weed control at 0.002 %,"[2]; read-out: Axillary bud growth inhibition ratio, Table 6, burley cultivar, concentration of active ingredient 0.002%",15%
same,pest or weed control at 0.005 %,"[2]; read-out: Axillary bud growth inhibition ratio, Table 6, burley cultivar, concentration of active ingredient 0.005%",19%
same,pest or weed control at 0.01 %,"[2]; read-out: Axillary bud growth inhibition ratio, Table 6, burley cultivar, concentration of active ingredient 0.01%",25%
same,Harmful effect of inhibitor,[3]; [9],Absent
same,Harmful effect of inhibitor,"[3]; Table 6, burley cultivar, concentration of active ingredient 0.002%",Absent
same,Harmful effect of inhibitor,"[3]; Table 6, burley cultivar, concentration of active ingredient 0.005%",Absent
same,Harmful effect of inhibitor,"[3]; Table 6, burley cultivar, concentration of active ingredient 0.01%",Absent
same,Harmful effect of inhibitor,[4]; [10],Absent
same,Harmful effect of inhibitor,"[4]; Table 5, flue-cured cultivar, concentration of active ingredient 0.002%",Absent
same,Harmful effect of inhibitor,"[4]; Table 5, flue-cured cultivar, concentration of active ingredient 0.005%",Absent
same,Harmful effect of inhibitor,"[4]; Table 5, flue-cured cultivar, concentration of active ingredient 0.01%",Absent
"COC(=O)c1c(Cl)c(Cl)c(C(=O)OC)c(Cl)c1Cl [Chlorthal-dimethyl, chlorthal-dimethyl]",pest or weed control at 0.05 %,"[1]; Nicotiana tabacum, 672 h, Table 5, flue-cured cultivar, concentration of active ingredient 0.05%, 28 days after the spraying, read-out: Axillary bud growth inhibition ratio",43%
same,pest or weed control at 0.1 %,"[1]; Nicotiana tabacum, 672 h, Table 5, flue-cured cultivar, concentration of active ingredient 0.1%, 28 days after the spraying, read-out: Axillary bud growth inhibition ratio",78%
same,pest or weed control at 0.2 %,"[1]; Nicotiana tabacum, 672 h, Table 5, flue-cured cultivar, 28 days after the spraying, read-out: Axillary bud growth inhibition ratio",88%
same,pest or weed control at 0.05 %,[2]; [14],39%
same,pest or weed control at 0.1 %,[2]; [14],71%
same,pest or weed control at 0.2 %,[2]; [14],82%
same,Harmful effect of inhibitor,[3]; in vivo,Absent
same,Harmful effect of inhibitor,[4]; in vivo,Absent
"CCCCCCCCCCO [Decyl alcohol, decyl alcohol]",pest or weed control at 2.6 %,"[1]; Nicotiana tabacum, 672 h, Table 1, flue-cured cultivar, concentration of active ingredient 2.6%, 28 days after the spraying, read-out: Axillary bud growth inhibition ratio",91%
same,pest or weed control at 0.5 %,[1]; [5],42%
same,pest or weed control at 0.03 %,"[1]; Nicotiana tabacum, 672 h, Table 5, flue-cured cultivar, concentration of active ingredient 0.03%, 28 days after the spraying, read-out: Axillary bud growth inhibition ratio",0%
same,Axillary bud growth inhibition ratio,"[1]; Table 5, flue-cured cultivar, concentration of active ingredient 2.6%, 28 days after the spraying",91%
same,pest or weed control at 2.6 %,[2]; [8],92%
same,pest or weed control at 0.5 %,[2]; [6],46%
same,pest or weed control at 0.03 %,[2]; [14],0%
same,pest or weed control at 2.6 %,[2]; [14],94%
"COCC(C)N(C(=O)CCl)c1c(C)csc1C (centres unmarked) [Dimethenamid, dimethenamid]",pest or weed control at 0.1 %,[1]; [7],92%
same,pest or weed control at 0.1 %,[2]; [8],94%
same,Harmful effect of inhibitor,[3]; in vivo,Absent
same,Harmful effect of inhibitor,[4]; in vivo,Absent
"CCN(C(=O)n1nnn(-c2ccccc2Cl)c1=O)C1CCCCC1 [Fentrazamide, fentrazamide]",pest or weed control at 0.1 %,[1]; [7],94%
same,pest or weed control at 0.1 %,[2]; [8],92%
same,Harmful effect of inhibitor,[3]; [9],Absent
same,Harmful effect of inhibitor,[4]; [10],Absent
"CC(C)=CCC/C(C)=C/CO [Geraniol, geraniol]",pest or weed control at 0.5 %,[1]; [5],30%
same,pest or weed control at 0.5 %,[2]; [6],28%
CCC1(CC2(c3cccc(Cl)c3)CO2)C(=O)c2ccccc2C1=O (centres unmarked) [Indanofan],pest or weed control at 0.1 %,[1]; [7],100%
same,pest or weed control at 0.1 %,[2]; [8],95%
same,Harmful effect of inhibitor,[3]; in vivo,Absent
same,Harmful effect of inhibitor,[4]; in vivo,Absent
"CCc1cccc(C)c1N(C(=O)CCl)C(C)COC (centres unmarked) [Metolachlor, metolachlor]",pest or weed control at 0.1 %,[1]; [7],95%
same,pest or weed control at 0.1 %,[2]; [8],91%
same,Harmful effect of inhibitor,[3]; [9],Absent
same,Harmful effect of inhibitor,[4]; [10],Absent
CCCOCCN(C(=O)CCl)c1c(CC)cccc1CC [Pretilachlor],pest or weed control at 0.1 %,[1]; [7],93%
same,pest or weed control at 0.1 %,[2]; [8],92%
same,Harmful effect of inhibitor,[3]; [9],Absent
same,Harmful effect of inhibitor,[4]; [10],Absent
"CCc1cccc(C)c1N(COC(C)C)C(=O)CCl [Propisochlor, propisochlor]",pest or weed control at 0.1 %,[1]; [7],86%
same,pest or weed control at 0.2 %,"[1]; Nicotiana tabacum, 672 h, Table 1, flue-cured cultivar, 28 days after the spraying, read-out: Axillary bud growth inhibition ratio",98%
same,Axillary bud growth inhibition ratio,"[1]; Table 3, flue-cured cultivar, concentration of active ingredient 0.1%, 28 days after the spraying",86%
same,pest or weed control at 0.1 %,[2]; [8],84%
same,pest or weed control at 0.2 %,[2]; [8],95%
same,pest or weed control at 0.1 %,[2]; [6],83%
same,Harmful effect of inhibitor,[3]; in vivo,Absent
same,Harmful effect of inhibitor,[4]; in vivo,Absent
